According to article PMC6089501 (Journal of Medicinal Chemistry, 2018):
Converted amounts (≈) assume the structure as drawn. Where two headings read alike, the source gives them in different places.

How the values were obtained:
[1] = target: T1, CYP 1A2 (Homo sapiens, UniProt P05177); test: CYP inhibition 1A2
T1 sequence (P05177 1-516): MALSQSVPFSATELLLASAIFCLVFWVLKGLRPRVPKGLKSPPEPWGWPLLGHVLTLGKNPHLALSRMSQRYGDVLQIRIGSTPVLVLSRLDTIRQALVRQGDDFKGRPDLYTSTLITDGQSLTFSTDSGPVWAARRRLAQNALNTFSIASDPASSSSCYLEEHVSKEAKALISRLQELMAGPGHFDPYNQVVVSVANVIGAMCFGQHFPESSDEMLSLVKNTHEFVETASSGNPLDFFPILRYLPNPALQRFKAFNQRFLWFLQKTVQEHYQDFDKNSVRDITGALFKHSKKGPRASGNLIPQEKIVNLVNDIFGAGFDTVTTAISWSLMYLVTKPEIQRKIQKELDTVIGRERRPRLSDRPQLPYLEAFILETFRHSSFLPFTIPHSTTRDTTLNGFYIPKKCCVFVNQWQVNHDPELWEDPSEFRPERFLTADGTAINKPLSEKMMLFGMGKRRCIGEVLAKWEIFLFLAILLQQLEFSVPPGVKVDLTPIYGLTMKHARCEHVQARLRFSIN

[2] = system: Vero cells; test: cells; conditions: Chlorocebus sabaeus, read-out: VERO IC50
Protocol: (§1) Compounds were solubilized in DMSO and assayed as a 10-point 3-fold serial dilution. Compounds were incubated with cells for 2 days at 37 °C, 5% CO2. CellTiter-Glo Reagent (Promega) was added and relative luminescent units (RLU) measured.

[3] = microsomes
[4] = in vitro; conditions: dog, MDCK-MDR1
[5] = in vitro; conditions: African green monkey, Vero cytotoxicity
Protocol: as §1

[6] = female, C57 Black, mouse, in vivo, iv, 3 mg/kg
Protocol: (§2) Test compound was dosed as a bolus solution intravenously at 3 mg of free base/kilogram (dose volume 5 mL/kg; dose vehicle Saline or 10% DMSO; 40% PEG400; 50% saline) to female C57 Black (n = 3) or dosed orally by gavage as a solution at 10 mg of free base/kilogram (dose volume 10 mL/kg; dose vehicle 10% DMSO; 40% PEG400; 50% distilled water) to female C57 Black (n = 3/dose level). Blood samples were taken from each mouse tail vein at predetermined time points postdose, mixed with two volumes of distilled water, and stored frozen until UPLC/MS/MS analysis. Pharmacokinetic parameters were derived from the blood concentration time curve using PK Solutions software v 2.0 (Summit Research Services, USA).

[7] = target: CYP2C9 (Homo sapiens, UniProt P11712); test: in vitro
CYP2C9, sequence (P11712 whole entry): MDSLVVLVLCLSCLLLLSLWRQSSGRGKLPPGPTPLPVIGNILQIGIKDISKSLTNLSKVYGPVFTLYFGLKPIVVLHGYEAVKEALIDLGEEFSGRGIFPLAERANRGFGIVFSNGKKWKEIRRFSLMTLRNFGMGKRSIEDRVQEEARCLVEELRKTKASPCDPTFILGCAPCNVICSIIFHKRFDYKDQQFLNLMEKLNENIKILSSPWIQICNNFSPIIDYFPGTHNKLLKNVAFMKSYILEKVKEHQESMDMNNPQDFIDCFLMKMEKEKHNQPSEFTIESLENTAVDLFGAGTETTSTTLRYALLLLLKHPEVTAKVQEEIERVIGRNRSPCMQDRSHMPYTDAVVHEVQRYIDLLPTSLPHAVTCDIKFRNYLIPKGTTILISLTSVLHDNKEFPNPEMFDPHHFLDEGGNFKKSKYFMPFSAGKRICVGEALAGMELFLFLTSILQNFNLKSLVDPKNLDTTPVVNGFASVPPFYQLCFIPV

[8] = in vivo; conditions: female, C57 Black, mouse
Protocol: as §2

[9] = system: Madin Darby Canine Kidney (MDCK)
[10] = target: CYP2C19 (Homo sapiens, UniProt P33261); test: in vitro
CYP2C19, sequence (P33261 whole entry): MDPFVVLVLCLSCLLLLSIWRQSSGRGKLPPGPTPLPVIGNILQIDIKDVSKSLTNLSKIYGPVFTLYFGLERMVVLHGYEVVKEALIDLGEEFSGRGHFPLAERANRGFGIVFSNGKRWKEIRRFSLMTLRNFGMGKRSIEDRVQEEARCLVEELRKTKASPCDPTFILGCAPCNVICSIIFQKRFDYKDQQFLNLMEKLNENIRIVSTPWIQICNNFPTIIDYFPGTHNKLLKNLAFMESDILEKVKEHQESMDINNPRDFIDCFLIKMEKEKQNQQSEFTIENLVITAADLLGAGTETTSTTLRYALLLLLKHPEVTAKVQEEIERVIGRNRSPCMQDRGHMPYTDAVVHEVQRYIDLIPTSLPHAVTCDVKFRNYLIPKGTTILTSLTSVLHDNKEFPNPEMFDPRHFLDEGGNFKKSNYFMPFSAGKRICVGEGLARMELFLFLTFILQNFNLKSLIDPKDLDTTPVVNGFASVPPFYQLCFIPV

[11] = target: CYP 2D6 (Homo sapiens, UniProt P10635); test: biochemical
CYP 2D6, sequence (P10635 whole entry): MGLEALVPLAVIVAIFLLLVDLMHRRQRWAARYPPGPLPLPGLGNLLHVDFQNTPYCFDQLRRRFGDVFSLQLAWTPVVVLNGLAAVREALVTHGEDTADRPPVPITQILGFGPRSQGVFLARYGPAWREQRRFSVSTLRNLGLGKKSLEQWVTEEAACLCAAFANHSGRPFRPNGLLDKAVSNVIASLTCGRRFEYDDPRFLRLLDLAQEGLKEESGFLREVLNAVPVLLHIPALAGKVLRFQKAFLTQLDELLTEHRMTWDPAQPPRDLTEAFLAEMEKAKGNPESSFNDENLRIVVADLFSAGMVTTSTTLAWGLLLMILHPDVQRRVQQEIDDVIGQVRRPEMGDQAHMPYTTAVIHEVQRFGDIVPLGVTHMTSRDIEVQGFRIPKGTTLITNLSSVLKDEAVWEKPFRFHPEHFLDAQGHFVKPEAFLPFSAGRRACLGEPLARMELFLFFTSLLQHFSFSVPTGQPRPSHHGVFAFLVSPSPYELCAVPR

[12] = system: M. tuberculosis H37Rv; test: microbe, parasite or virus in culture; format: cell-based, Mycobacterium tuberculosis

With `NC(=O)c1sc(N2CCOCC2)cc1OCCc1ccccc1` [Compound 1, 5-Morpholino-3-phenethoxythiophene-2-carboxamide] the IC50 [1] was greater than 10 µM, the IC50 [2] was greater than 100 µM and the “Microsomal clearance, Human” value [3] was “Human = 3.5 mL·min^−1·g^−1”. For the same molecule, the Cli mouse (female, CD1, mouse, pH 7.4) was 19 mL.min^–1.g^–1, the “scaled Clpre” value (female, CD1, mouse, pH 7.4) was 4.86 L/h/kg and the “CL mouse MEAN” value (mouse, microsomes) was 18.63 mL/min/g. For the same molecule, the “Microsomal clearance, Mouse” value (mouse, microsomes) was “Mouse = 19 mL·min^−1·g^−1”, the “in vitro mouse Clint” value (mouse, microsomes) was 19 mL/min/g and the Papp A→B [4] was 450 nm/s. It also gave a Papp B→A [4] of 370 nm/s, an IC50 [5] greater than 100 µM and a CLB [6] of 0.6 L/h/kg. The T1/2 [6] was 42 min, the IC50 [7] was 7.94 µM and the AUC ([8]; iv, 3 mg/kg) was 4.83 µg·h/mL. The bioavailability ([8]; po, 10 mg/kg) was 0.5%, the “P-glycoprotein (P-gp) efflux (in words)” value ([9]; MDCK-MDR1) was “no likely P-glycoprotein (P-gp) efflux issues” and the “permeability (in words)” value ([9]; MDCK-MDR1) was “good permeability”. For the same molecule, the “P-gp Efflux B→ A/A → B” value ([9]; dog, MDCK) was 0.8, the IC50 [10] was 1.26 µM and the IC50 [11] was 10 µM. It also gave an MIC ([12]; Mycobacterium tuberculosis, H37RV, read-out: H37Rv MIC) of 0.13 mg/L, an MIC90 ([12]; Mycobacterium tuberculosis, H37RV, read-out: MIC (MIC90)) of 0.72 µM (≈ 0.239 µg/mL) and an MIC ([12]; Mycobacterium tuberculosis, H37RV, read-out: MIC WT) of 1.3 µM. The IC90 ([12]; Mycobacterium tuberculosis, H37RV, read-out: TB-IC90_OD GEOM_MEAN) was 0.608 µM and the “MIC (H37RvLP)” value ([12]; n = 14) was 0.72 ± 0.30 (n = 14).
